# Source: US20250154198A1, “PEPTIDE INHIBITORS OF INTERLEUKIN-23 RECEPTOR” (Zealand Pharma A/S, priority 2021, published 2025)
# Read-outs that look alike come from different tables or passages of the source. *1 amine or outer side, *2 acyl side, *3 side chain or, on linkers, in order; H or OH if unused. Where a SMILES comes first, the peptide text is derived from it. Bridges are numbered along the chain shown (N, C = ends). [ ]: non-standard residue; d: D form. Bip = N[C@@H](Cc1ccc(-c2ccccc2)cc1)C(=O)O; 2Nal = N[C@@H](Cc1ccc2ccccc2c1)C(=O)O; AEF = NCCOc1ccc(C[C@H](N)C(=O)O)cc1; αMeL = CC(C)C[C@](C)(N)C(=O)O; CH2COCH2 = O=C(C[*:1])C[*:2]
# Columns and labels:
# human IL-23R = target: T1, human IL-23R (Homo sapiens, UniProt Q5VWK5); assay: Binding assay (NanoBRET displacement of fluorophore-labelled reference compound) for estimating binding affinity to human IL-23R; conditions: for IL-23R inhibitory activity (in words): with reference to Ki and IC50 data of the Examples
# T1 construct: UniProtKB—Q5VWK5, amino acids 22-629; secretion signal of the plasmid (Promega N1371); expressed in transfected cells
# T1 sequence (Q5VWK5 22-629): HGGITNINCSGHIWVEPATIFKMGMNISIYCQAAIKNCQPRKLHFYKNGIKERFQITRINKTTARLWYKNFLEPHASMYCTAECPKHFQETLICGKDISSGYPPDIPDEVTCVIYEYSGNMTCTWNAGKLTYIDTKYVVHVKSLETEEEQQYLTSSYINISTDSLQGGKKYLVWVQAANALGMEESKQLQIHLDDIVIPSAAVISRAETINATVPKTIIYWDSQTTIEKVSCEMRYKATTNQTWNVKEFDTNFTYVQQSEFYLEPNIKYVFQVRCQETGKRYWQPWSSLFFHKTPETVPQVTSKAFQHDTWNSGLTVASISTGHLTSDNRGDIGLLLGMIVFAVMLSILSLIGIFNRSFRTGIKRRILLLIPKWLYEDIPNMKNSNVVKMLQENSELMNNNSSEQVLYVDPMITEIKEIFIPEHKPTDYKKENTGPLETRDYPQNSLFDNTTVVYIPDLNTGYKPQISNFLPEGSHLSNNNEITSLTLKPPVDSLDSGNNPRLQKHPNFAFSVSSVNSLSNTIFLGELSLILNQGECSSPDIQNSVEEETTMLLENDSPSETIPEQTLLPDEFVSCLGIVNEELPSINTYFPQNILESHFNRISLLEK
# [1] = target: IL-23 mediated phospho-STAT3 formation in DB cells (Homo sapiens, UniProt Q5VWK5); assay: Functional inhibition of IL-23 mediated STAT3 signalling (phospho-STAT3 Tyr705 MSD) in DB cells; format: cell-based
# From the text: Functional Inhibition of IL-23 Mediated STAT3 Signalling by Compounds
# Upon binding of IL-23, the IL-23R forms a heterodimer signalling complex together with IL-12R β1, which through the JAK2/STAT3 pathway promotes phosphorylation of STAT3 to form phospho-STAT3.
# The assay was used to quantify the functional antagonism of a compound and to rank order the inhibitor compounds according to their potency. For compounds tested in this assay, the response was normalized relative to control values to calculate the IC50 and maximal inhibitory response from a concentration response curve of the compound in presence of a fixed concentration of human IL-23.
# The assay procedure was as follows. […] Following preincubation of the DB cells with inhibitor for 15 min in a cell incubator (37° C., 5% CO2), 20 μL of the prepared 3× the EC80 of hIL-23 solution was added to each well and incubated for 90 min in a cell incubator (37° C., 5% CO2). For some wells buffer only or IL-23 only corresponding to the EC80 was added to obtain readouts needed for normalization. To terminate the assay, the plate was spun at 1000 G for 5 min to pellet cells, the supernatant removed using an 8-channel manual pipette, and then added 50 μL/well Complete Lysis Buffer from the MSD STAT3 kit (Cat #K150SVD, Mesoscale) to the cell pellet. To completely lyse cells to release phospho-STAT3 for detection, the plate was shaken for 10 min at room temperature (500 rpm) sealed with aluminum foil and placed at −80° C. for a minimum of 15 min. Detection of the phospho-STAT3 level in the cell lysate from the individual wells was determined using the MSD STAT3 kit (Cat #K150SVD, Mesoscale) and read on a Meso QuickPlex SQ 120 plate reader (Mesoscale).
# For data analysis raw data counts from the Meso QuickPlex SQ 120 plate reader were normalized relative to the response by the EC80 of hIL-23 alone (no compound added) and the buffer level. Compound potency (IC50) and maximal inhibitory response (% inhibition) were estimated by computer-aided curve fitting using a 4-parameter logistic (4PL) non-linear model.
# [2] = Table 3-1, read-out: Ki hIL-23R
# [3] = Table 3-1, DB cells, read-out: IC50 (pSTAT3)
smiles,measurement,setting,value
"CC(=O)N[C@H]1CCCCNC(=O)CC[C@@H](C(=O)N[C@@H](CCCNC(=N)N)C(N)=O)NC(=O)[C@H](CC(C)C)NC(=O)[C@H](Cc2ccc3ccccc3c2)NC(=O)[C@H](Cc2ccc(OCCN)cc2)NC(=O)[C@@H]2CSCC(=O)CSC[C@H](NC(=O)[C@H](CO)NC1=O)C(=O)N[C@@H](Cc1c[nH]c3ccccc13)C(=O)N[C@@H](CCC(N)=O)C(=O)N2 [Compound 29, [Ac]-K(1c)SC(2a)WQC(2a)[Y(2-aminoethoxy)][2-Nal]LE(1c)R-[NH2]] (Ac-KSCWQC[AEF][2Nal]LER-NH2; lactam 1-10; linker 3-6 via CH2COCH2)",Ki,"human IL-23R; Table 2-9b, read-out: Ki IL-23R",0.64 nM
same,Ki,human IL-23R; [2],0.68 nM
same,IC50,"[1]; Table 2-9b, DB cells, read-out: IC50 (pSTAT3)",19.7 nM
"CC(C)C[C@@H]1NC(=O)[C@H](Cc2c[nH]c3ccccc23)NC(=O)[C@H](Cc2c[nH]c3ccccc23)NC(=O)[C@@H]2CSCC(=O)CSC[C@H](NC(=O)[C@H](CO)NC(=O)[C@H](CC(=O)O)NC(=O)[C@H](CCCNC(=N)N)NC1=O)C(=O)N[C@@H](Cc1c[nH]c3ccccc13)C(=O)N[C@@H](CCC(N)=O)C(=O)N2 [Compound 6, D(1c)*SC(2a)WQC(2a)WWLR(1c)*] (HELM PEPTIDE1{C.W.Q.C.W.W.L.R.D.S}|CHEM1{[O=C(C[*:1])C[*:2]]}$PEPTIDE1,CHEM1,1:R3-1:R1|PEPTIDE1,CHEM1,4:R3-1:R2|PEPTIDE1,PEPTIDE1,1:R1-10:R2$$$V2.0)",Ki,human IL-23R; [2],> 1000 nM
same,IC50,[1]; [3],> 1000 nM
"CC(=O)N[C@H]1CCC(=O)NCCCC[C@@H](C(=O)N[C@@H](CCCNC(=N)N)C(N)=O)NC(=O)[C@H](CC(C)C)NC(=O)[C@H](Cc2c[nH]c3ccccc23)NC(=O)[C@H](Cc2c[nH]c3ccccc23)NC(=O)[C@@H]2CSCC(=O)CSC[C@H](NC(=O)[C@H](CO)NC1=O)C(=O)N[C@@H](Cc1c[nH]c3ccccc13)C(=O)N[C@@H](CCC(N)=O)C(=O)N2 [Compound 10, [Ac]-E(1c)SC(2a)WQC(2a)WWLK(1c)R-[NH2]] (HELM PEPTIDE1{[ac].E.S.C.W.Q.C.W.W.L.K.R.[am]}|CHEM1{[O=C(C[*:1])C[*:2]]}$PEPTIDE1,PEPTIDE1,2:R3-11:R3|PEPTIDE1,CHEM1,4:R3-1:R1|PEPTIDE1,CHEM1,7:R3-1:R2$$$V2.0)",Ki,"human IL-23R; Table 2-4b, read-out: Ki IL-23R",101 nM
same,IC50,"[1]; Table 2-4b, DB cells, read-out: IC50 (pSTAT3)",617 nM
"CC(=O)N[C@@H](CC(=O)O)C(=O)N[C@H]1CCC(=O)NCCCC[C@@H](C(=O)N[C@@H](CCCNC(=N)N)C(N)=O)NC(=O)[C@H](CC(C)C)NC(=O)[C@H](Cc2c[nH]c3ccccc23)NC(=O)[C@H](Cc2c[nH]c3ccccc23)NC(=O)[C@@H]2CSCC(=O)CSC[C@H](NC(=O)[C@H](CO)NC1=O)C(=O)N[C@@H](C)C(=O)N[C@@H](CCC(N)=O)C(=O)N2 [Compound 13, [Ac]-DE(1c)SC(2a)AQC(2a)WWLK(1c)R-[NH2]] (HELM PEPTIDE1{[ac].D.E.S.C.A.Q.C.W.W.L.K.R.[am]}|CHEM1{[O=C(C[*:1])C[*:2]]}$PEPTIDE1,PEPTIDE1,3:R3-12:R3|PEPTIDE1,CHEM1,5:R3-1:R1|PEPTIDE1,CHEM1,8:R3-1:R2$$$V2.0)",Ki,human IL-23R; [2],> 1000 nM
same,IC50,[1]; [3],> 1000 nM
"CC(C)C[C@@H]1NC(=O)[C@H](Cc2c[nH]c3ccccc23)NC(=O)[C@H](Cc2c[nH]c3ccccc23)NC(=O)[C@@H]2CSSC[C@H](NC(=O)[C@H](CO)NC(=O)[C@@H](NC(=O)[C@@H](N)CC(=O)O)CSSC[C@@H](C(=O)N[C@@H](CCCNC(=N)N)C(N)=O)NC1=O)C(=O)N[C@@H](Cc1c[nH]c3ccccc13)C(=O)N[C@@H](CCC(N)=O)C(=O)N2 [Ref 1, H-DC(1b)SC(2b)WQC(2b)WWLC(1b)R-[NH2], reference compound]",Ki,human IL-23R,> 1000 nM
same,IL-23R inhibitory activity (in words),human IL-23R,inactive
same,IC50,[1],> 1000 nM
same,IC50,"[1]; read-out: IC50 (pSTAT3), Table 3-1, DB cells",> 1000 nM
"CC(=O)N[C@@H](CC(=O)O)C(=O)N[C@H]1CCC(=O)NCCCC[C@@H](C(=O)N[C@@H](CCCNC(=N)N)C(N)=O)NC(=O)[C@H](Cc2c[nH]c3ccccc23)NC(=O)[C@H](Cc2c[nH]c3ccccc23)NC(=O)[C@@H]2CSCC(=O)CSC[C@H](NC(=O)[C@H](CO)NC1=O)C(=O)N[C@@H](Cc1c[nH]c3ccccc13)C(=O)N[C@@H](CCC(N)=O)C(=O)N2 [Ref 7, [Ac]-DE(1c)SC(2a)WQC(2a)WWK(1c)R-[NH2], reference compound] (HELM PEPTIDE1{[ac].D.E.S.C.W.Q.C.W.W.K.R.[am]}|CHEM1{[O=C(C[*:1])C[*:2]]}$PEPTIDE1,PEPTIDE1,3:R3-11:R3|PEPTIDE1,CHEM1,5:R3-1:R1|PEPTIDE1,CHEM1,8:R3-1:R2$$$V2.0)",Ki,human IL-23R; [2],> 1000 nM
same,IL-23R inhibitory activity (in words),human IL-23R,inactive
same,IC50,[1]; [3],> 1000 nM
"CC(=O)N[C@H]1CCCCNC(=O)CC[C@@H](C(=O)N[C@@H](CCCNC(=N)N)C(N)=O)NC(=O)[C@H](CC(C)C)NC(=O)[C@H](Cc2ccc3ccccc3c2)NC(=O)[C@H](Cc2c[nH]c3ccccc23)NC(=O)[C@@H]2CSCC(=O)CSC[C@H](NC(=O)[C@H](CO)NC1=O)C(=O)N[C@@H](Cc1ccc(-c3ccccc3)cc1)C(=O)N[C@@H](CCC(N)=O)C(=O)N2 [Compound 26, [Ac]-K(1c)SC(2a)[Bip]QC(2a)W[2-Nal]LE(1c)R-[NH2]] (Ac-KSC[Bip]QCW[2Nal]LER-NH2; lactam 1-10; linker 3-6 via CH2COCH2)",Ki,human IL-23R; [2],> 1000 nM
same,IC50,[1]; [3],> 1000 nM
"CC(=O)N[C@@H](CC(=O)O)C(=O)N[C@H]1CCCCNC(=O)CC[C@@H](C(=O)N[C@@H](CCCNC(=N)N)C(N)=O)NC(=O)[C@H](CC(C)C)NC(=O)[C@H](Cc2ccc3ccccc3c2)NC(=O)[C@H](Cc2c[nH]c3ccccc23)NC(=O)[C@@H]2CSCC(=O)CSC[C@H](NC(=O)[C@H](CO)NC1=O)C(=O)N[C@@H](Cc1c[nH]c3ccccc13)C(=O)N[C@@H](CCC(N)=O)C(=O)N2 [Compound 19, [Ac]-DK(1c)SC(2a)WQC(2a)W[2-Nal]LE(1c)R-[NH2]] (HELM PEPTIDE1{[ac].D.K.S.C.W.Q.C.W.[O=C([C@H](Cc1ccc2ccccc2c1)N[*:1])[*:2]].L.E.R.[am]}|CHEM1{[O=C(C[*:1])C[*:2]]}$PEPTIDE1,PEPTIDE1,3:R3-12:R3|PEPTIDE1,CHEM1,5:R3-1:R1|PEPTIDE1,CHEM1,8:R3-1:R2$$$V2.0)",Ki,"human IL-23R; Table 2-6b, read-out: Ki IL-23R",6.32 nM
same,IC50,"[1]; Table 2-6b, DB cells, read-out: IC50 (pSTAT3)",32.3 nM
"CC(C)C[C@@H]1NC(=O)[C@H](Cc2c[nH]c3ccccc23)NC(=O)[C@H](Cc2c[nH]c3ccccc23)NC(=O)[C@H](CO)NC(=O)[C@H](CCC(N)=O)NC(=O)[C@H](Cc2c[nH]c3ccccc23)NC(=O)[C@H](CO)NC(=O)[C@H](CO)NC(=O)[C@@H](NC(=O)[C@@H](N)CC(=O)O)CCC(=O)NCCCC[C@@H](C(=O)N[C@@H](CCCNC(=N)N)C(N)=O)NC1=O [Ref 2, reference compound] (HELM PEPTIDE1{D.E.S.S.W.Q.S.W.W.L.K.R.[am]}$PEPTIDE1,PEPTIDE1,2:R3-11:R3$$$V2.0)",Ki,human IL-23R; [2],> 1000 nM
same,IC50,[1]; [3],> 1000 nM
"CC(=O)N[C@@H](CC(=O)O)C(=O)N[C@H]1CSCC(=O)CSC[C@@H](C(=O)N[C@@H](CCCNC(=N)N)C(N)=O)NC(=O)[C@](C)(CC(C)C)NC(=O)[C@H](Cc2c[nH]c3ccccc23)NC(=O)[C@H](Cc2ccc(O)cc2)NC(=O)[C@@H]2CSCC(=O)CSC[C@H](NC(=O)[C@H](CCC(N)=O)NC1=O)C(=O)N[C@@H](Cc1c[nH]c3ccccc13)C(=O)N[C@@H](CCC(N)=O)C(=O)N2 [Compound 63, [Ac]-DC(1a)QC(2a)WQC(2a)YW[2-Me-Leu]C(1a)R-[NH2]] (Ac-DCQCWQCYW[αMeL]CR-NH2; linker 2-11, 4-7 via CH2COCH2)",Ki,human IL-23R,> 1000 nM
same,IC50,[1],> 1000 nM
